Experimental data taken from ChEMBL document CHEMBL1773000, “Synthesis and biological activity of 22-deoxo-23-oxa analogues of saponin OSW-1” (J Med Chem, 2011).

Columns and labels:
CCRF-CEM = test: Cytotoxicity against human CEM cells assessed as viable cells after 72 hrs by calcein AM assay; type: functional, cell-based
MCF7 = test: Cytotoxicity against human MCF7 cells assessed as viable cells after 72 hrs by calcein AM assay; type: functional, cell-based; details: MCF7, 72 h
G-361 = test: Cytotoxicity against human G361 cells assessed as viable cells after 72 hrs by calcein AM assay; type: functional, cell-based; details: G-361, 72 h
HeLa = test: Cytotoxicity against human HeLa cells assessed as viable cells after 72 hrs by calcein AM assay; type: functional, cell-based
A549 = test: Cytotoxicity against human A549 cells assessed as viable cells after 72 hrs by calcein AM assay; type: functional, cell-based; details: A549, 72 h
BJ = test: Cytotoxicity against human BJ cells assessed as viable cells after 72 hrs by calcein AM assay; type: cell-based
HOS = test: Cytotoxicity against human HOS cells assessed as viable cells after 72 hrs by calcein AM assay; type: functional, cell-based
[1] = Cytotoxicity against human T98 cells assessed as viable cells after 72 hrs by calcein AM assay; type: functional, cell-based; details: T98, 72 h
HCT-116 = test: Cytotoxicity against human HCT116 assessed as viable cells after 72 hrs by calcein AM assay; type: functional, cell-based; details: HCT-116, 72 h

SMILES | IC50 (CCRF-CEM) | IC50 (MCF7) | IC50 (G-361) | IC50 (HeLa) | IC50 (A549) | IC50 (BJ) | IC50 (HOS) | IC50 [1] | IC50 (HCT-116)
CCCCCCC(=O)OC[C@@H](C)[C@@]1(O)[C@@H](O[C@@H]2OC[C@H](O)[C@H](O[C@@H]3OC[C@@H](O)[C@H](O)[C@H]3OC(=O)c3ccc(OC)cc3)[C@H]2OC(C)=O)C[C@H]2[C@@H]3CC=C4C[C@@H](O)CC[C@]4(C)[C@H]3CC[C@@]21C | 10 nM | 400 nM | 1280 nM | 30 nM | 20 nM | 600 nM | – | – | –
CCCCC(=O)OC[C@@H](C)[C@@]1(O)[C@@H](O[C@@H]2OC[C@H](O)[C@H](O[C@@H]3OC[C@@H](O)[C@H](O)[C@H]3OC(=O)c3ccc(OC)cc3)[C@H]2OC(C)=O)C[C@H]2[C@@H]3CC=C4C[C@@H](O)CC[C@]4(C)[C@H]3CC[C@@]21C | 60 nM | 500 nM | 390 nM | 170 nM | 160 nM | 500 nM | – | – | –
COc1ccc(C(=O)O[C@H]2[C@H](O[C@@H]3[C@@H](OC(C)=O)[C@H](O[C@H]4C[C@H]5[C@@H]6CC=C7C[C@@H](O)CC[C@]7(C)[C@H]6CC[C@]5(C)[C@@]4(O)[C@H](C)C(=O)CCC(C)C)OC[C@@H]3O)OC[C@@H](O)[C@@H]2O)cc1 | 0.3 nM | 2.4 nM | 1000 nM | 3.4 nM | 27 nM | 0.2 nM | 8.2 µM | 70 nM | 8.4 µM
CC(C)CCC(=O)[C@@H](C)[C@@]1(O)[C@@H](O)C[C@H]2[C@@H]3CC=C4C[C@@H](O)CC[C@]4(C)[C@H]3CC[C@@]21C | > 50000 nM | > 50000 nM | > 50000 nM | > 50000 nM | > 50000 nM | > 50000 nM | > 50 µM | > 50000 nM | > 50 µM
C=CCCCCC(=O)OC[C@@H](C)[C@@]1(O)[C@@H](O[C@@H]2OC[C@H](O)[C@H](O[C@@H]3OC[C@@H](O)[C@H](O)[C@H]3OC(=O)c3ccc(OC)cc3)[C@H]2OC(C)=O)C[C@H]2[C@@H]3CC=C4C[C@@H](O)CC[C@]4(C)[C@H]3CC[C@@]21C | 21 nM | 54 nM | 44 nM | 61 nM | 840 nM | 20 nM | 6.5 µM | 43 nM | 11 µM
CCCCCCCCCCCC(=O)OC[C@@H](C)[C@@]1(O)[C@@H](O[C@@H]2OC[C@H](O)[C@H](O[C@@H]3OC[C@@H](O)[C@H](O)[C@H]3OC(=O)c3ccc(OC)cc3)[C@H]2OC(C)=O)C[C@H]2[C@@H]3CC=C4C[C@@H](O)CC[C@]4(C)[C@H]3CC[C@@]21C | 6.3 nM | 21 nM | 8 nM | 42 nM | 930 nM | 5 nM | 1.9 µM | 7 nM | 2.8 µM
COc1ccc(C(=O)O[C@H]2[C@H](O[C@@H]3[C@@H](OC(C)=O)[C@H](O[C@H]4C[C@H]5[C@@H]6CC=C7C[C@@H](O)CC[C@]7(C)[C@H]6CC[C@]5(C)[C@@]4(O)[C@H](C)COC(=O)c4ccccc4)OC[C@@H]3O)OC[C@@H](O)[C@@H]2O)cc1 | 70 nM | 700 nM | 1660 nM | – | 170 nM | 100 nM | – | – | –
CCCCCCCCCCCCCCCCCC(=O)OC[C@@H](C)[C@@]1(O)[C@@H](O[C@@H]2OC[C@H](O)[C@H](O[C@@H]3OC[C@@H](O)[C@H](O)[C@H]3OC(=O)c3ccc(OC)cc3)[C@H]2OC(C)=O)C[C@H]2[C@@H]3CC=C4C[C@@H](O)CC[C@]4(C)[C@H]3CC[C@@]21C | 58 nM | 195 nM | 300 nM | 435 nM | 550 nM | 80 nM | > 50 µM | 210 nM | > 50 µM
CCCCCCCCCCCCCC(=O)OC[C@@H](C)[C@@]1(O)[C@@H](O[C@@H]2OC[C@H](O)[C@H](O[C@@H]3OC[C@@H](O)[C@H](O)[C@H]3OC(=O)c3ccc(OC)cc3)[C@H]2OC(C)=O)C[C@H]2[C@@H]3CC=C4C[C@@H](O)CC[C@]4(C)[C@H]3CC[C@@]21C | 16 nM | 48 nM | 30 nM | 67 nM | 720 nM | 83 nM | 2.7 µM | 28 nM | 2.8 µM
CCCCCCCCC(=O)OC[C@@H](C)[C@@]1(O)[C@@H](O[C@@H]2OC[C@H](O)[C@H](O[C@@H]3OC[C@@H](O)[C@H](O)[C@H]3OC(=O)c3ccc(OC)cc3)[C@H]2OC(C)=O)C[C@H]2[C@@H]3CC=C4C[C@@H](O)CC[C@]4(C)[C@H]3CC[C@@]21C | 7.2 nM | 26 nM | 15 nM | 47 nM | 590 nM | 7 nM | 2.8 µM | 11 nM | 4.9 µM
COc1ccc(C(=O)O[C@H]2[C@H](O[C@@H]3[C@@H](OC(C)=O)[C@H](O[C@H]4C[C@H]5[C@@H]6CC=C7C[C@@H](O)CC[C@]7(C)[C@H]6CC[C@]5(C)[C@@]4(O)[C@H](C)COCc4ccccc4)OC[C@@H]3O)OC[C@@H](O)[C@@H]2O)cc1 | 20 nM | 600 nM | 750 nM | 200 nM | 100 nM | 300 nM | – | – | –
